Test results published in paper PMC6381024, “Probing Anti-inflammatory Properties Independent of NF-κB Through Conformational Constraint of Peptide-Based Interleukin-1 Receptor Biased Ligands” (Frontiers in Chemistry, 2019).
“Also recorded” adds a separate entry of the source.

Legend:
NF-κB = NF-κB QUANTI-Blue assay (secreted alkaline phosphatase reporter) in HEK-Blue IL-33/IL-1β cells; assay type: cell-based; set-up: key to Nf-κB (heatmap grade of inhibition): 0: No effect; No effect 01234 Maximum inhibition/efficacy; No effect 01234 Maximum inhibition/efficacy; No effect 01234 Maximum inhibition/efficacy; 4: Maximum inhibition/efficacy; conditions: for Nf-κB (heatmap grade of inhibition): HEK-Blue cells, peptide 10^-6 M or Kineret 1.0 mg/mL 30 min, then IL-1β 100 ng/mL 4 h, QUANTI-Blue
Procedure: HEK-Blue IL-33/IL-1β cells (InvivoGen) were pretreated with peptides 1, 5, or 6 (10^−6M) or Kineret (1.0 mg/mL) for 30 min, followed by treatment with a constant concentration of IL-1β (100 ng/mL), and then incubated at 37°C for 4 h. Levels of secreted alkaline phosphatase in cell culture supernatant were determined using the QUANTI-Blue assay, according to the manufacturer's instructions (InvivoGen). Alkaline phosphatase activity was assessed by measuring the optical density (OD) at 620–655 nm with a micro plate reader (EnVision Multilabel reader; PerkinElmer, Waltham, MA). Data are representative of 3 experiments (each with n = 4 per treatment group).
Figure 6 The effects of peptides 1, 5, and 6 on IL-1-induced NF-κB signaling. NF-κB activation was quantified on HEK-blue cells using the QUANTI-blue assay, which spectroscopically detects secreted alkaline phosphatase, a reporter product from the transcription of the NF-κB gene. HEK-blue cells were pre-incubated with peptides 1, 5, and 6 or vehicle, then stimulated with IL-1β for 4 h. Data shown represents the average of 3 experiments, each with n = 4 per treatment group. ^****p < 0.0001 compared to group treated only with IL-1β. Treatment groups that are not labeled with asterisks are statistically non-significant compared to group treated only with IL-1β.

IL-6 = assay: qPCR of IL-1β-induced IL-6 expression in HEK-Blue IL-33/IL-1β cells; assay type: cell-based, human; set-up: key to qPCR IL-6 (heatmap grade of inhibition): 0: No effect; No effect 01234 Maximum inhibition/efficacy; No effect 01234 Maximum inhibition/efficacy; No effect 01234 Maximum inhibition/efficacy; 4: Maximum inhibition/efficacy; conditions: for qPCR IL-6 (heatmap grade of inhibition): HEK-Blue cells, peptide 10^-6 M or Kineret 1.0 mg/mL 30 min, then IL-1β 100 ng/mL 4 h (legend: overnight); for Suppression of IL-6 transcription: HEK blue cells, 10^-6 M pre-treatment, IL-1β stimulation
Procedure: HEK-Blue IL-33/IL-1β cells were purchased from InvivoGen (San Diego, CA) and used at passages under 15. HEK-Blue cells were cultured in DMEM growth medium supplemented with 10% serum, 50 U/mL penicillin, […] streptomycin, […] zeocin, and […] hygromycin. Cells were grown in regular conditions (37°C, 5% CO2). Cells were serum starved overnight and treated with 100 ng/mL IL-1β for 4 h. Cells were pre-incubated for 30 min with peptides 1, 5, or 6 (10^−6M) or Kineret (1.0 mg/mL) prior to the experiments to reach equilibrium (n = 4 each treatment). Cells were harvested and incubated for 5 min in RIBOzol (AMRESCO). RNA was extracted according to manufacturer's protocol and RNA concentration and integrity were measured with a NanoDrop 1,000 spectrophotometer. A total of 500 ng RNA was used to synthetize cDNA using iScript Reverse Transcription SuperMix (Bio-Rad, Hercules, CA). Quantitative gene expression analysis was performed on Stratagene MXPro3000 (Stratagene) with SYBR Green Master Mix (Bio-Rad). Gene expression levels were normalized to 18S universal primer (Ambion Life Technology, Burlington ON, Canada). Genes analyzed include IL1β, IL6, and PTGHS2 [Prostaglandin H synthetase 2 or cyclooxygenase-2 (COX-2)]. Data are representative of 3 experiments (each with n = 4 per treatment group).
Figure 8 The effects of peptides 1, 5, and 6 on the expression of pro-inflammatory genes. HEK-Blue cells were pre-treated with peptides 1, 5, and 6 as above and stimulated with IL-1β overnight. qPCR was performed on cell lysates using 18S rRNA as internal control. Graphs are sorted in columns by gene of interest (COX-2, IL-1β, or IL-6) and rows by peptide configuration [(3R) or (3S)]. Results are representative of an average of 3 independent experiments (each with n = 4 per treatment group) and are expressed as a fold-change of the non-stimulated control: ^*p < 0.05, ^**p < 0.01, ^***p < 0.001, ^****p < 0.0001 compared to group treated only with IL-1β. Treatment groups that are not labeled with asterisks are statistically non-significant compared to group treated only with IL-1β.

pregnant CD-1 mice = assay: LPS-induced preterm birth (PTB) model in mice; assay type: in vivo, mouse; set-up: key to In vivo PTB (heatmap grade of efficacy): 0: No effect; No effect 01234 Maximum inhibition/efficacy; No effect 01234 Maximum inhibition/efficacy; No effect 01234 Maximum inhibition/efficacy; 4: Maximum inhibition/efficacy; conditions: for In vivo PTB (heatmap grade of efficacy): LPS 10 μg i.p. at G16.5, peptide 2 mg/kg/day s.c. every 12 h; for Activity in delaying labor in the PTB model: LPS i.p. at G16.5, 2 mg/kg/day s.c.
Procedure: Timed-pregnant CD-1 mice at 16.5 days of gestation (G16.5) were anesthetized with 2% isoflurane and received an intraperitoneal injection of LPS (n = 4 per group, a single dose of 10 μg) (Nadeau-Vallée et al., [2015], and Kakinuma et al., [1997]). A dosage of 2 mg/kg/day of peptide 1, 5, or 6 or vehicle was injected subcutaneously in the neck, every 12 h until delivery. On G16.5, a dose of 1 mg/kg was injected 30 min before stimulation with LPS (to allow distribution of drugs to target tissues) and 1 mg/kg was injected 12 h after stimulation (n = 4 each treatment). Mice delivery was assessed every hour until term (G19–G19.5). A mouse is considered as delivering prematurely if the first pup is delivered earlier than G18.5.
Figure 9 The effects of peptides 1, 5, and 6 on prevention of PTB. (A) Schematic of the CD-1 mouse PTB model. In brief, pregnant dams on day 16.5 of gestation (G16.5) were subcutaneously pretreated with peptides 1, 5, and 6 or vehicle, followed by LPS, and observed for delivery of pups. A dam was considered as delivering preterm if at least one pup was delivered before G18.5. (B) The rates of PTB in dams treated with peptides 1, 5, and 6 are grouped into (3R)- (left) and (3S)- (right) derivatives; n = 4–5 dams per treatment group.

| Substance | Nf-κB (heatmap grade of inhibition) (NF-κB) | qPCR IL-6 (heatmap grade of inhibition) (IL-6) | In vivo PTB (heatmap grade of efficacy) (pregnant CD-1 mice) | Activity in delaying labor in the PTB model (pregnant CD-1 mice) | Suppression of IL-6 transcription (IL-6) | Inhibition of IL-1-induced NF-κB signaling (NF-κB; HEK-blue cells, peptide 10^-6 M or Kineret 1.0 mg/mL, IL-1β 4 h, QUANTI-blue) |
| --- | --- | --- | --- | --- | --- | --- |
| H-D-Arg-D-Tyr-(3R,4R)-Hgl-(S)-Val-D-Glu-D-Leu-D-Ala-NH2 [[(3R,4R)-Hgl^3-(S)-Val^4]-1] | 0 | 4 | 0 | – | – | – |
| H-D-Arg-D-Tyr-(3R,4R)-Hgl-D-Val-D-Glu-D-Leu-D-Ala-NH2 [[(3R,4R)-Hgl^3]-1] | 0 | 4 | 0 | – | – | – |
| H-D-Arg-D-Tyr-(3R,4S)-Hgl-(S)-Val-D-Glu-D-Leu-D-Ala-NH2 [[(3R,4S)-Hgl^3-(S)-Val^4]-1] | 0 | 2 | 2 | – | – | – |
| H-D-Arg-D-Tyr-(3R,4S)-Hgl-D-Val-D-Glu-D-Leu-D-Ala-NH2 [[(3R,4S)-Hgl^3]-1] | 0 | 4 | 4 | best activity | – | – |
| H-D-Arg-D-Tyr-(3S,4R)-Hgl-D-Val-D-Glu-D-Leu-D-Ala-NH2 [[(3S,4R)-Hgl^3]-1] | 0 | 4 | 4 | best activity | – | – |
| H-D-Arg-D-Tyr-(R)-Agl-(S)-Val-D-Glu-D-Leu-D-Ala-NH2 [[(3R)-Agl^3-(S)-Val^4]-1] | 0 | 1 | 0 | – | ability to suppress the transcription of all three genes was lost | – |
| H-D-Arg-D-Tyr-(R)-Agl-D-Val-D-Glu-D-Leu-D-Ala-NH2 [[(3R)-Agl^3]-1] | 0 | 3 | 4 | high potency; also recorded: best activity | – | – |
| H-D-Arg-D-Tyr-(S)-Agl-(S)-Val-D-Glu-D-Leu-D-Ala-NH2 [[(3S)-Agl^3-(S)-Val^4]-1] | 0 | 1 | 0 | – | ability to suppress the transcription of all three genes was lost | – |
| H-D-Arg-D-Tyr-(S)-Agl-D-Val-D-Glu-D-Leu-D-Ala-NH2 [[(3S)-Agl^3]-1] | 0 | 2 | 4 | high potency; also recorded: best activity | – | – |
| H-D-Arg-D-Tyr-D-Thr-D-Val-D-Glu-D-Leu-D-Ala-NH2 [Peptide 1] | 0 | 4 | 4 | – | strong suppression of transcription of all three genes | – |
| Kineret: FDA-approved recombinant IL-1 receptor antagonist | 4 | 4 | 0 | – | – | inhibited NF-κB |
